# Data: patent US20120053200A1, “BACE 2 INHIBITORS” (priority 2010, published 2012)
# Biological target: T1, BACE2 (Rattus norvegicus, UniProt Q6IE75)
# T1 construct: endogenous cellular BACE2 in the Ins1e rat cell line; endogenous in cells; host or cells: INS-TMEM27 (INS1e-derived rat beta-cell line with doxycycline-inducible full-length hTMEM27)
# T1 sequence (Q6IE75 63-514): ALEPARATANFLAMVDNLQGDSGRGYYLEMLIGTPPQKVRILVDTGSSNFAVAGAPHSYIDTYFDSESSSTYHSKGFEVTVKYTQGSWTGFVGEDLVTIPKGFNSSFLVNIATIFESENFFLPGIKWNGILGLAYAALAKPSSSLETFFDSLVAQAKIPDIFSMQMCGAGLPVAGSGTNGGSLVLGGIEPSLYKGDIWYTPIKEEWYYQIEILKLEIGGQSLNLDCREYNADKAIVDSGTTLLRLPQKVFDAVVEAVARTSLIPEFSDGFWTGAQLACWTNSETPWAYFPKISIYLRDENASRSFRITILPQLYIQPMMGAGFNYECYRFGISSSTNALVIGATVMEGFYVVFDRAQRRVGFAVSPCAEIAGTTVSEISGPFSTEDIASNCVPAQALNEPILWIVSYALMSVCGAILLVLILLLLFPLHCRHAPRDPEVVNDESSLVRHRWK
# Assay: Assay for BACE inhibition by measuring cellular TMEM27 cleavage (INS-TMEM27 cells, ELISA of shed TMEM27)
# Assay type: cell-based
# Conditions: inhibition of human TMEM27 cleavage by endogenous cellular BACE2 in INS1e-derived INS-TMEM27 rat cell line; ELISA of shed TMEM27 in supernatant
# Method in brief: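 Rat INS1e-derived cells with doxycycline-inducible full-length human TMEM27, cleaved by endogenous BACE2. After 2 days' culture, inhibitor added; 2 h later, doxycycline to 500 ng/ml final, then 46 h at 37 °C. Shed TMEM27 in medium quantified by sandwich ELISA; IC50 from curve fit.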
row,IC50 [nM],Molecule
1,2,"O=C(N[C@@H](Cc1ccccc1)[C@H](O)CNCc1cccc(C(F)(F)F)c1)c1cccc(C(=O)N2CCCC2c2cccc(F)c2)c1 (stereo partly drawn) [Example 68, N-[(1S,2R)-1-Benzyl-2-hydroxy-3-(3-trifluoromethyl-benzylamino)-propyl]-3-[2-(3-fluoro-phenyl)-pyrrolidine-1-carbonyl]-benzamide]"
2,7,"O=C(N[C@@H](Cc1ccccc1)[C@H](O)CNCc1cccc(C(F)(F)F)c1)c1cccc(C(=O)N2CCCC2C2CCCCC2)c1 (stereo partly drawn) [Example 69, N-[(1S,2R)-1-Benzyl-2-hydroxy-3-(3-trifluoromethyl-benzylamino)-propyl]-3-(2-cyclohexyl-pyrrolidine-1-carbonyl)-benzamide]"
3,147,"CC(C)CC1CCCN1C(=O)c1cccc(C(=O)N[C@@H](Cc2ccccc2)[C@H](O)CNCc2cccc(C(F)(F)F)c2)c1 (stereo partly drawn) [Example 70, N-[(1S,2R)-1-Benzyl-2-hydroxy-3-(3-trifluoromethyl-benzylamino)-propyl]-3-(2-isobutyl-pyrrolidine-1-carbonyl)-benzamide]"
4,484,"O=C(N[C@@H](Cc1ccccc1)[C@H](O)CNCc1cccc(C(F)(F)F)c1)c1cccc(C(=O)N2CCCC2C(=O)c2ccccc2)c1 (stereo partly drawn) [Example 71, 3-(2-Benzoyl-pyrrolidine-1-carbonyl)-N-[(1S,2R)-1-benzyl-2-hydroxy-3-(3-trifluoromethyl-benzylamino)-propyl]-benzamide]"
5,66,"O=C(N[C@@H](Cc1ccccc1)[C@H](O)CNCc1cccc(C(F)(F)F)c1)c1cccc(C(=O)N2CCCC2C2CCCC2)c1 (stereo partly drawn) [Example 72, N-[(1S,2R)-1-Benzyl-2-hydroxy-3-(3-trifluoromethyl-benzylamino)-propyl]-3-(2-cyclopentyl-pyrrolidine-1-carbonyl)-benzamide]"
6,56,"CC(C)(C)C1CCCN1C(=O)c1cccc(C(=O)N[C@@H](Cc2ccccc2)[C@H](O)CNCc2cccc(C(F)(F)F)c2)c1 (stereo partly drawn) [Example 73, N-[(1S,2R)-1-Benzyl-2-hydroxy-3-(3-trifluoromethyl-benzylamino)-propyl]-3-(2-tert-butyl-pyrrolidine-1-carbonyl)-benzamide]"
7,255,"Cc1csc(CN(C)C(=O)c2cc(C(=O)N[C@@H](Cc3ccccc3)[C@H](O)CNCc3cncc(C(C)(C)F)c3)cc(N(C)S(C)(=O)=O)c2)n1 [Example 74, N-((1S,2R)-1-Benzyl-3-{[5-(1-fluoro-1-methyl-ethyl)-pyridin-3-ylmethyl]-amino}-2-hydroxy-propyl)-5-(methanesulfonyl-methyl-amino)-N′-methyl-N′-(4-methyl-thiazol-2-ylmethyl)-isophthalamide]"

row,Molecule,IC50 [nM]
1,"N-[(1S,2R)-1-Benzyl-2-hydroxy-3-(3-trifluoromethyl-benzylamino)-propyl]-3-(methanesulfonyl-methyl-amino)-5-(2-phenyl-pyrrolidine-1-carbonyl)-benzamide [Example 50]",3
